ChEMBL document CHEMBL1201862, “PubChem BioAssay data set” (2004)
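Each compound was tested at five concentrations against cells in 96-well plates for 48 hours. Here, GI50 denotes the concentration required for 50% inhibition of growth.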 The source made the active and inactive calls. Cut-off read from the data, not from the text of the source: active = GI50 up to about 1.1 µM and inactive = higher.

What was measured:
Assay in all cases: DTP human tumour cell line panel, 48 h
[1] = tested on: ACHN
[2] = tested on: CCRF-CEM
[3] = tested on: HCT-15
[4] = tested on: HOP-62
[5] = tested on: HT-29
[6] = tested on: LOX IMVI
[7] = tested on: NCI-H460
[8] = tested on: NCI-H522
[9] = tested on: OVCAR-8
[10] = tested on: SF-539
[11] = tested on: SW-620
[12] = tested on: TK-10
[13] = tested on: UACC-62
[14] = tested on: UO-31
[15] = tested on: HCC 2998
[16] = tested on: OVCAR-5
[17] = tested on: UACC-257

Cn1nc(-c2ccccc2)c(C(=O)/C=C/c2ccc(Cl)cc2)c(N2CCCC2)c1=O
GI50 [1]: 1.72 µM (inactive)
GI50 [2]: 2.46 µM (inactive)
GI50 [3]: 3.75 µM
GI50 [4]: 2.23 µM (inactive)
GI50 [5]: 2.21 µM (inactive)
GI50 [6]: 3.8 µM (inactive)
GI50 [7]: 3.86 µM (inactive)
GI50 [8]: 2.07 µM (inactive)
GI50 [9]: 4.91 µM (inactive)
GI50 [10]: 3.55 µM (inactive)
GI50 [11]: 4.02 µM (inactive)
GI50 [12]: 11.6 µM (inactive)
GI50 [13]: 4.55 µM (inactive)
GI50 [14]: 8.51 µM (inactive)

C=CN1C(=O)[C@H](Oc2ccccc2)[C@@H]1c1ccccc1
GI50 [1]: 32 µM (inactive)
GI50 [2]: 46.8 µM (inactive)
GI50 [15]: 47.4 µM (inactive)
GI50 [3]: 41.1 µM
GI50 [4]: 32.7 µM (inactive)
GI50 [5]: 22.7 µM (inactive)
GI50 [7]: 30.3 µM (inactive)
GI50 [8]: 32.6 µM (inactive)
GI50 [16]: > 100 µM (inactive)
GI50 [9]: 23.8 µM (inactive)
GI50 [10]: 16.2 µM (inactive)
GI50 [11]: 33.3 µM (inactive)
GI50 [12]: 37.2 µM (inactive)
GI50 [17]: 41.5 µM (inactive)
GI50 [14]: 36.3 µM (inactive)

CCN(CC)c1ccc(/N=N/c2ccc(-c3nc4cccnc4s3)cc2)cc1
GI50 [1]: > 100 µM (inactive)
GI50 [2]: > 100 µM (inactive)
GI50 [15]: > 100 µM (inactive)
GI50 [4]: > 100 µM (inactive)
GI50 [5]: > 100 µM (inactive)
GI50 [7]: 60.3 µM (inactive)
GI50 [8]: > 100 µM (inactive)
GI50 [16]: > 100 µM (inactive)
GI50 [9]: > 100 µM (inactive)
GI50 [11]: > 100 µM (inactive)
GI50 [12]: > 100 µM (inactive)
GI50 [17]: > 100 µM (inactive)
GI50 [13]: 97.9 µM (inactive)
GI50 [14]: > 100 µM (inactive)

CN(C)CC/C(=N\Nc1ccc(Cl)cc1Cl)c1ccccc1
GI50 [1]: 15 µM (inactive)
GI50 [2]: 12.7 µM (inactive)
GI50 [3]: 12.4 µM
GI50 [4]: 13.9 µM (inactive)
GI50 [5]: 14.3 µM (inactive)
GI50 [6]: 14.8 µM (inactive)
GI50 [7]: 13.8 µM (inactive)
GI50 [8]: > 10 µM (inactive)
GI50 [16]: 16.9 µM (inactive)
GI50 [9]: 17.7 µM (inactive)
GI50 [10]: 18.1 µM (inactive)
GI50 [11]: 16 µM (inactive)
GI50 [12]: 15.1 µM (inactive)
GI50 [17]: 15.9 µM (inactive)
GI50 [13]: 14.6 µM (inactive)
GI50 [14]: 2.37 µM (inactive)

Nc1ncnc2c1ncn2C1OC(CSCc2ccc(Cl)cc2)C(O)C1O (stereo not drawn)
GI50 [1]: 34.9 µM (inactive)
GI50 [2]: 31.3 µM (inactive)
GI50 [15]: 44.9 µM (inactive)
GI50 [3]: 12 µM
GI50 [4]: 17 µM (inactive)
GI50 [5]: 22.1 µM (inactive)
GI50 [6]: 37.3 µM (inactive)
GI50 [7]: > 100 µM (inactive)
GI50 [16]: > 100 µM (inactive)
GI50 [9]: 42.7 µM (inactive)
GI50 [10]: 29.4 µM (inactive)
GI50 [11]: 31.8 µM (inactive)
GI50 [12]: 55 µM (inactive)
GI50 [17]: 31.3 µM (inactive)
GI50 [13]: 46.9 µM (inactive)
GI50 [14]: 18.9 µM (inactive)

COC(=O)[C@H]1C=C[C@@H](C)n2c(=O)c3ccccc3c(=O)n21
GI50 [1]: > 100 µM (inactive)
GI50 [2]: > 100 µM (inactive)
GI50 [15]: > 100 µM (inactive)
GI50 [3]: > 100 µM
GI50 [4]: > 100 µM (inactive)
GI50 [5]: > 100 µM (inactive)
GI50 [6]: > 100 µM (inactive)
GI50 [7]: > 100 µM (inactive)
GI50 [8]: > 100 µM (inactive)
GI50 [16]: > 100 µM (inactive)
GI50 [9]: > 100 µM (inactive)
GI50 [10]: > 100 µM (inactive)
GI50 [11]: > 100 µM (inactive)
GI50 [12]: > 100 µM (inactive)
GI50 [17]: > 100 µM (inactive)
GI50 [14]: > 100 µM (inactive)

CC(C)(C)OC(=O)c1cccnc1/C=N/O
GI50 [1]: 24 µM (inactive)
GI50 [2]: 67.1 µM (inactive)
GI50 [3]: 51.9 µM
GI50 [4]: > 100 µM (inactive)
GI50 [5]: > 100 µM (inactive)
GI50 [6]: > 100 µM (inactive)
GI50 [7]: 48.4 µM (inactive)
GI50 [8]: > 100 µM (inactive)
GI50 [16]: > 100 µM (inactive)
GI50 [9]: > 100 µM (inactive)
GI50 [10]: > 100 µM (inactive)
GI50 [11]: 58.6 µM (inactive)
GI50 [12]: > 100 µM (inactive)
GI50 [17]: > 100 µM (inactive)
GI50 [13]: > 100 µM (inactive)
GI50 [14]: > 100 µM (inactive)

O=C1c2ccccc2C(=O)N1C/C=N/NS(=O)(=O)c1cccc([N+](=O)[O-])c1
GI50 [1]: > 100 µM (inactive)
GI50 [2]: > 100 µM (inactive)
GI50 [15]: > 100 µM (inactive)
GI50 [3]: > 100 µM
GI50 [4]: > 100 µM (inactive)
GI50 [5]: > 100 µM (inactive)
GI50 [6]: > 100 µM (inactive)
GI50 [7]: > 100 µM (inactive)
GI50 [8]: > 100 µM (inactive)
GI50 [9]: > 100 µM (inactive)
GI50 [10]: > 100 µM (inactive)
GI50 [11]: > 100 µM (inactive)
GI50 [12]: > 100 µM (inactive)
GI50 [17]: > 100 µM (inactive)
GI50 [13]: > 100 µM (inactive)
GI50 [14]: > 100 µM (inactive)

CCOC(=O)NC(=O)c1cn(CCCOC(=O)NCCCCCCNC(=O)OCCCn2cc(C(=O)NC(=O)OCC)c(=O)[nH]c2=O)c(=O)[nH]c1=O
GI50 [1]: 18.7 µM (inactive)
GI50 [2]: 5.4 µM (inactive)
GI50 [15]: 20 µM (inactive)
GI50 [3]: 28.2 µM
GI50 [4]: 40.1 µM (inactive)
GI50 [5]: 63.4 µM (inactive)
GI50 [6]: 43.1 µM (inactive)
GI50 [7]: 77.4 µM (inactive)
GI50 [9]: 31.3 µM (inactive)
GI50 [10]: 18.5 µM (inactive)
GI50 [11]: 26 µM (inactive)
GI50 [12]: 29.8 µM (inactive)
GI50 [17]: 19.2 µM (inactive)
GI50 [13]: 20.1 µM (inactive)

CNC1=Nc2ccc(Cl)cc2C(OP(=O)(N2CCOCC2)N2CCOCC2)=NC1
GI50 [1]: > 100 µM (inactive)
GI50 [2]: > 100 µM (inactive)
GI50 [15]: > 100 µM (inactive)
GI50 [3]: > 100 µM
GI50 [5]: > 100 µM (inactive)
GI50 [6]: > 100 µM (inactive)
GI50 [7]: > 100 µM (inactive)
GI50 [8]: 26.5 µM (inactive)
GI50 [16]: > 100 µM (inactive)
GI50 [9]: > 100 µM (inactive)
GI50 [10]: > 100 µM (inactive)
GI50 [11]: > 100 µM (inactive)
GI50 [12]: > 100 µM (inactive)
GI50 [17]: > 100 µM (inactive)
GI50 [13]: > 100 µM (inactive)
GI50 [14]: > 100 µM (inactive)

CCOC(=O)C1=C(c2ccccc2)NC(c2ccccc2)=C(C(=O)OCC)c2c1c(=O)cc[nH]c2=O
GI50 [1]: 72.8 µM (inactive)
GI50 [15]: > 100 µM (inactive)
GI50 [3]: > 100 µM
GI50 [4]: > 100 µM (inactive)
GI50 [5]: 74.8 µM (inactive)
GI50 [6]: 62.1 µM (inactive)
GI50 [7]: > 100 µM (inactive)
GI50 [8]: 84.1 µM (inactive)
GI50 [16]: > 100 µM (inactive)
GI50 [9]: > 100 µM (inactive)
GI50 [10]: > 100 µM (inactive)
GI50 [11]: > 100 µM (inactive)
GI50 [12]: > 100 µM (inactive)
GI50 [17]: 99.8 µM (inactive)
GI50 [13]: 26.4 µM (inactive)
GI50 [14]: > 100 µM (inactive)

Cn1cc(NC(=O)c2cc(NC(=O)CCCCCC(=O)Nc3cc(C(=O)Nc4cc(C(=O)NCCC(=N)N)n(C)c4)n(C)c3)cn2C)cc1C(=O)NCCC(=N)N
GI50 [1]: > 100 µM (inactive)
GI50 [2]: > 100 µM (inactive)
GI50 [15]: > 100 µM (inactive)
GI50 [3]: > 100 µM
GI50 [5]: > 100 µM (inactive)
GI50 [6]: 46.1 µM (inactive)
GI50 [7]: 26.4 µM (inactive)
GI50 [16]: > 100 µM (inactive)
GI50 [9]: > 100 µM (inactive)
GI50 [10]: > 100 µM (inactive)
GI50 [11]: > 100 µM (inactive)
GI50 [12]: > 100 µM (inactive)
GI50 [17]: 27.2 µM (inactive)
GI50 [13]: 64.9 µM (inactive)
GI50 [14]: > 100 µM (inactive)

COc1cc2c(c(OC)c1OC)-c1ccc(SC)c(=O)cc1[C@@H](NC(=O)c1cccc([N+](=O)[O-])c1)CC2
GI50 [1]: 0.0489 µM (active)
GI50 [2]: 0.0301 µM (active)
GI50 [15]: 0.0207 µM (active)
GI50 [4]: 0.0257 µM (active)
GI50 [5]: 0.0241 µM (active)
GI50 [8]: < 0.01 µM (active)
GI50 [16]: > 100 µM (inactive)
GI50 [9]: 0.024 µM (active)
GI50 [10]: 0.0171 µM (active)
GI50 [11]: 0.0276 µM (active)
GI50 [12]: 0.047 µM (active)
GI50 [17]: < 0.01 µM (active)
GI50 [13]: 0.0292 µM (active)
GI50 [14]: 0.0516 µM (active)
